Consider 35 compounds from ChEMBL document CHEMBL6103553, “Small molecule inhibitors targeting PD-L1, CTLA4, VISTA, TIM-3, and LAG3 for cancer immunotherapy (2020-2024)” (Eur J Med Chem, 2025).

Data set [1] in a line: Inhibition of PD-L1 (unknown origin) by FRET assay. More on the design: species or system Homo sapiens.
Data set [2] in a line: Stability in mouse plasma assessed as half life. Format: ADME, cell-free.
Data set [3] can be described thus: Binding affinity to PD-L1 (unknown origin) assessed as dissociation constant. More on the design: species or system Homo sapiens.
The nature of data set [4]: Inhibition of CTLA-4/CD80 (unknown origin) protein-protein interaction. More on the design: species or system Homo sapiens.
The nature of data set [5]: Inhibition of LAG-3/MHC-II (unknown origin) interaction by TR-FRET assay. More on the design: species or system Homo sapiens.
Data set [6] in a line: Induction of PD-L1 degradation in human NCI-H460 cells transfected with siRNA ABCB1 incubated for 2 hrs by Western blot analysis. The following applies: NCI-H460, 2 h. On the technique in general: A western blot detects proteins with antibodies after separation by electrophoresis.
Data set [7] is described as follows: Inhibition of PD-L1 (unknown origin) by HTRF assay. More on the design: species or system Homo sapiens. In general terms: TR-FRET usually uses a lanthanide donor and a delayed reading to cut background.
Data set [8] addresses Programmed cell death protein 1/Programmed cell death 1 ligand 1 (Homo sapiens, UniProt Q9NZQ7). Description: Inhibition of human PD-1/PD-L1 incubated for 1 hr by HTRF assay. It counts as protein-complex assay.
In another data set the test system is MC-38. Description: Antitumor activity against mouse MC-38 cells implanted in C57BL/6N mouse assessed as reduction in tumor volume at 10 mg/kg, ip in presence of PD-L1 and measured after 10 days relative to control. The following applies: time 10 day. More on the design: scale not given: the % may be the effect or the level left. It counts as functional.
Data set [9] can be described thus: Inhibition of his-tagged CTLA-4/CD80 (unknown origin) protein-protein interaction by TR-FRET assay. More on the design: species or system Homo sapiens.
The target of data set [10] is T1, V-type immunoglobulin domain-containing suppressor of T-cell activation (Homo sapiens, UniProt Q9H7M9).
T1 sequence (Q9H7M9 whole entry): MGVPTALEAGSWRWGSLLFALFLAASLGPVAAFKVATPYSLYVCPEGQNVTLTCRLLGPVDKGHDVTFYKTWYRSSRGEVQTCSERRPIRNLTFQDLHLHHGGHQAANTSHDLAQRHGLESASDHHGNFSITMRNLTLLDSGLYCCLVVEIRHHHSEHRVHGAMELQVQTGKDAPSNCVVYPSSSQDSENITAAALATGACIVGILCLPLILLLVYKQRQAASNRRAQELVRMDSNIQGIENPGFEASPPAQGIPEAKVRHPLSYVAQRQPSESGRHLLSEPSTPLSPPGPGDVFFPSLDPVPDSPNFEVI
Description: Inhibition of N-terminal His-tagged human recombinant VISTA (1 to 161 residues) transfected in human Expi293 cells incubated for 60 mins by ELISA analysis. It counts as cell-based. On the technique in general: ELISA stands for enzyme-linked immunosorbent assay.

A short description of data set [11]: Inhibition of human PD-L1 by HTRF assay.
The target of the next data set is Tubulin. Briefly: Inhibition of tubulin polymerization (unknown origin). Format: protein-complex assay, Homo sapiens.
Data set [12] deals with T1, V-type immunoglobulin domain-containing suppressor of T-cell activation. Briefly: biochemical.
Description: Binding affinity to N-terminal His-tagged human recombinant VISTA (1 to 161 residues) transfected in human Expi293 cells assessed as dissociation constant incubated for 60 mins by SPR assay
Data set [13] can be described thus: Inhibition of VISTA/VSIG-3 (unknown origin) protein-protein interaction by TR-FRET assay.

As usually defined, the IC50 is the point on the concentration scale where inhibition reaches its midpoint. For orientation: half-life means the time needed for the level to fall by half in the phase considered. By Kd is commonly meant the free concentration of one partner at which half of the binding sites on the other are occupied at equilibrium, for simple one-to-one binding. What is called DC50 is the concentration at which degradation of the target reaches its halfway point.

Molecules are shown by their SMILES.

Programmed cell death protein 1/Programmed cell death 1 ligand 1, sequence (Q15116 whole entry): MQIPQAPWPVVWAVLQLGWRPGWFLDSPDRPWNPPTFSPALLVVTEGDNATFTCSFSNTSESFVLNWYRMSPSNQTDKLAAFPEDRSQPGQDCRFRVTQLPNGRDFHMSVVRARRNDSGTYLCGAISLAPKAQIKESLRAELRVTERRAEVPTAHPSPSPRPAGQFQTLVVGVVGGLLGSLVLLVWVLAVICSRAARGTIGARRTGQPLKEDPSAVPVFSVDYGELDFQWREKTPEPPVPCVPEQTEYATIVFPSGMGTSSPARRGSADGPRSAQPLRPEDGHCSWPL
Programmed cell death protein 1/Programmed cell death 1 ligand 1, sequence (Q9NZQ7 whole entry): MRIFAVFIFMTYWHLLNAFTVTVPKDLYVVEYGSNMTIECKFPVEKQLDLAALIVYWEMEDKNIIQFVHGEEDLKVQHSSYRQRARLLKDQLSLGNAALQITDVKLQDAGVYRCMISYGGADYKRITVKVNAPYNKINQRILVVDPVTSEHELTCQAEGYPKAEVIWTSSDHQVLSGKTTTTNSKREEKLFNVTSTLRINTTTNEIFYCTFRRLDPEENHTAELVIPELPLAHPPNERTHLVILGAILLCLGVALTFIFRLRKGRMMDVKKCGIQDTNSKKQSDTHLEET

`Oc1cc(-c2ccc(C(F)(F)F)cc2)nn1-c1ccccn1` yielded an IC50 in data set [1] of 0.143 µM. The half-life in [2] was < 30 min. Further, the Kd in [3] worked out at 0.156 µM. Consider `COc1ccccc1C1CN(c2ccccc2)N=C1c1cccs1` (centres undefined), for which the IC50 in data set [4] is 1.9 µM.

Compound `COc1ccc(-c2nc(CO/N=C/c3ccccc3Cl)co2)cc1` showed an IC50 in data set [4] of 1.5 µM. `CC(=O)Nc1ccc(OCC(=O)c2cc(C)n(C(C)C)c2C)cc1`: the IC50 in data set [5] was > 50 µM.

As for `O[C@@H](COc1cccc2ncccc12)CN1CCN([C@@H]2c3ccccc3[C@@H]3[C@H](c4ccccc42)C3(F)F)CC1` [ZOSUQUIDAR], in data set [6], the half-maximal degradation concentration (DC50) was < 10 µM.

Regarding `CCOC(=O)C(COC(=O)NCCSSCCNC(=O)O/N=C(\Nc1ccc(C)c(O)c1)c1nonc1N)NCc1cc(Cl)c(OCc2cccc(-c3ccccc3)c2Br)cc1OCc1ccnc(C#N)c1` (centres undefined), in data set [7], the IC50 was < 0.1 µM. `Cc1cc(C(=O)COc2ccc(NC(=O)c3ccco3)cc2)c(C)n1Cc1ccccc1` gave an IC50 in data set [5] of 4.2 µM. Compound `O=C(CSc1ccccc1Cl)N1N=C(c2cccs2)CC1c1ccco1` (centres undefined) had an IC50 in [4] of 1.3 µM. For the compound `CCCCCN(CCCCC)C(C)C(=O)c1cc(C)c2ccc3cc(C(C)C)ccc3c2c1` (centres undefined), it took 0.096 µM to reach half-maximal inhibition in data set [8] (IC50). Moreover, the Activity in the data set with MC-38 was 93.6%.

In the case of `O=[N+]([O-])c1cccc(/C=N/OCc2csc(-c3ccccc3)n2)c1`, in [4], it took 4.5 µM to reach half-maximal inhibition (IC50).

Compound `Clc1ccc(C2=NN(c3ccccc3)C(c3ccco3)C2)cc1` (centres undefined) registered an IC50 in data set [9] of 1 µM. Consider `CN(C)c1n/c(=N/Cc2cccs2)ss1`, for which the IC50 in data set [10] was found to be 6.4 µM. In the case of `Cc1ccc([C@@H]2O[C@H](CO)[C@@H](O)[C@H](O)[C@H]2O)cc1Cc1ccc(-c2ccc(F)cc2)s1` [CANAGLIFLOZIN ANHYDROUS], in data set [6], the DC50 is < 20 µM. For the compound `N=c1[nH]c2c3c(c4[nH]c(=N)[nH]c4c2[nH]1)[C@@H](CNC(=O)c1cc(Br)c(Br)[nH]1)[C@@H]3CNC(=O)c1cc(Br)c(Br)[nH]1`, in data set [6], the DC50 is < 5 µM.

`Oc1cc(-c2ccc(Cl)cc2Cl)nn1-c1ccccn1` displayed an IC50 in data set [1] of 0.077 µM. Further, the Kd in data set [3] turned out to be 0.11 µM. In data set [1], `Cc1cc(O)n(-c2ccccc2)n1` had an IC50 of 0.092 µM. The Kd in data set [3] came to 0.098 µM. Consider `COc1ccc2cc3[n+](cc2c1OC)CCc1cc2c(cc1-3)OCO2` [BERBERINE CHLORIDE], for which, in data set [6], the DC50 is < 2 µM. Still for that read-out and setting: the same measure for `CCOC(=O)C1=C(COCCS)NC(C)=C(C(=O)OC)C1c1ccccc1Cl` (centres undefined): < 10 µM.

`Oc1cc(-c2cccc(C(F)(F)F)c2)nn1-c1ccccn1` showed an IC50 in data set [1] of 1.1 µM. The Kd in data set [3] came to 1.2 µM. As to `Cc1cccc2nc(-c3cccc(CNCCO)c3)[nH]c12`, in [10], the IC50 was determined as 256 µM. In the case of `Cc1c(-c2ccccc2)ccc2nc(-c3ccc(CNCCO)cc3)[nH]c12`, the IC50 in data set [10] was found to be 1.1 µM. Turning to `COc1ccc(-c2nc(N)nc(-c3cc(C)ccc3O)c2Cl)cc1`, the IC50 in data set [8] was found to be 0.00244 µM. In data set [9], `O=[N+]([O-])c1cccc(/C=N/OCc2coc(-c3cccc(F)c3)n2)c1` showed an IC50 of 5.16 µM. Regarding `Cc1c(COc2ccc(CN3CCCCC3C(=O)NCCOCCOCCOCCNC(=O)CCCCCn3cc(CCCC(=O)NCCCC[C@@H]4NC(=O)[C@@H](Cc5ccc(O)cc5)NC(=O)[C@H](CC(=O)O)NC(=O)CNC(=O)[C@H](CCCNC(=N)N)NC4=O)nn3)cc2Br)cccc1-c1ccccc1` (some centres undefined), the DC50 in [6] was < 0.1 µM.

As to `Cc1c(COc2ccc(CN3CCCCC3C(=O)NCCCn3cc(CCCC(=O)NCCCC[C@@H]4NC(=O)[C@@H](Cc5ccc(O)cc5)NC(=O)[C@H](CC(=O)O)NC(=O)CNC(=O)[C@H](CCCNC(=N)N)NC4=O)nn3)cc2Br)cccc1-c1ccccc1` (some centres undefined), in data set [6], the DC50 was < 50 µM. With `COc1ccc(/C=C\c2cc(OC)c(OC)c(OC)c2)cc1OCc1ccc(CC=O)cc1`, the IC50 in data set [11] is 0.0488 µM; at Tubulin, 16.1 µM. Take `CN(C)C(=N)NC(=N)N` [METFORMIN]: in data set [6], the DC50 was < 2 µM. In data set [8], `Cc1nc(C)c(C(=O)NNC(=O)Cc2ccccc2)cc1C(=O)NNC(=O)Cc1ccccc1` displayed an IC50 of 0.00109 µM.

Consider `CN(C)c1n/c(=N/Cc2ccco2)ss1`, for which the figures for the IC50 in [10] and in data set [13] were 4.5 µM and 9.7 µM, respectively. The same compound showed a Kd in data set [12] of 6.2 µM.

`C/C(=N\OCC(=O)Nc1ccc(C)c(F)c1)c1nc(-c2ccccc2)[nH]c1C` registered an IC50 in [4] of 1.4 µM.

On to `Clc1ccc(C2CN(c3ccccc3)N=C2c2ccco2)cc1` (centres undefined), for which the IC50 in data set [9] was 4.1 µM.

With `Clc1ccc(C2=NN(Cc3ccccc3)CC2c2ccccc2)cc1` (centres undefined), the IC50 in [4] amounted to 0.97 µM. In data set [5], `Cc1cc(C(=O)COc2ccc(NC(=O)c3ccco3)cc2)c(C)n1-c1ccccc1` came in with an IC50 of 8.3 µM.

In the case of `C[C@@]1(C(=O)O)CC[C@]2(C)CC[C@]3(C)C4=CC(=O)c5c(cc(O)c(O)c5C=O)[C@]4(C)CC[C@@]3(C)[C@@H]2C1`, the half-maximal degradation concentration (DC50) in data set [6] is < 5 µM. Same read-out and setting: the same measure for `Cc1c(COc2ccc(CN3CCCCC3C(=O)NCCOCCNC(=O)CCCCCn3cc(CCCC(=O)NCCCC[C@@H]4NC(=O)[C@@H](Cc5ccc(O)cc5)NC(=O)[C@H](CC(=O)O)NC(=O)CNC(=O)[C@H](CCCNC(=N)N)NC4=O)nn3)cc2Br)cccc1-c1ccccc1` (some centres undefined): < 0.1 µM.
